The results in this text go back to US20070185099A1, “Triazolopyrimidine compounds and their use for controlling pathogenic fungi” (priority 2004, published 2007).

The assay concerns Puccinia recondita. As to the kind of experiment: Curative activity against brown rust of wheat caused by Puccinia recondita. The class given is in vivo. As to conditions: 250 ppm active compound, wheat cultivar Kanzler, 7 days after treatment, untreated plants 80% infected. Here is the method: The active compounds were prepared as a stock solution by mixing 25 mg of active compound with a mixture of acetone and/or DMSO and the emulsifier Uniperol® EL (wetting agent having an emulsifying and dispersing action based on ethoxylated alkylphenols) in a volume ratio of solvent/emulsifier of 99:1 to give a total volume of 10 ml, and the mixture was then diluted to 100 ml with water. This stock solution was diluted with the solvent/emulsifier/water mixture described to give the concentration of active compounds stated below.
Leaves of potted wheat seedlings of the cultivar “Kanzler” were inoculated with a spore suspension of brown rust (Puccinia recondita). The pots were then placed into a chamber with high atmospheric humidity (90 to 95%) and at 20-22° C. for 24 hours. During this time, the spores germinated and the germ tubes penetrated into the leaf tissue. The next day, the infected plants were sprayed to runoff point with an aqueous suspension having the concentration of active compounds stated below. The suspension or emulsion was prepared as described above. After the spray coating had dried on, the test plants were cultivated in a greenhouse at temperatures between 20 and 22° C. and at 65 to 70% relative atmospheric humidity for 7 days. The extent of the rust fungus development on the leaves was then determined.

For the compound `COC(=O)C(Nc1c(-c2c(F)cc(F)cc2F)c(Cl)nc2ncnn12)C(C)(C)C` (racemic) [Example 61], the “infection of treated plants (rust fungus development on leaves)” value was “no infection”. Regarding `COC(=O)C(C(C)C)N(C)c1c(-c2c(F)cc(F)cc2F)c(Cl)nc2ncnn12` (centres unmarked) [Example 60], the “infection of treated plants (rust fungus development on leaves)” value is recorded as “no infection”.
